# Values quoted from earlier work as cited in article PMC7330163 (Pharmacology Research & Perspectives, 2020).
# Legend:
# CYP3A4 = conditions: man; cited from earlier work
# [1] = test system: hepatic OATP transporters; conditions: accumulates in the liver; cited from earlier work
smiles,measurement,setting,value
COc1ccccc1Oc1c(NS(=O)(=O)c2ccc(C(C)(C)C)cc2)nc(-c2ncccn2)nc1OCCO [bosentan],CYP3A4 induction in clinical use,CYP3A4,moderate CYP3A4 inducer
same,substrate of OATP,[1],is an OATP substrate
